The experiment deals with S. Typhi PhoP-promoter GFP reporter, fluorescence, 4 h. The experiment is described as follows: PhoP regulon inhibitor project modified counter assay, GFP fluorescence readout, dose response (AID 1985).
Usually IC50 stands for the concentration at which inhibition is half-maximal. Turning to `O=C(CSc1nnc(-c2ccccc2)n1-c1ccc(Cl)cc1)NC1CCS(=O)(=O)C1` (stereo unspecified), the IC50 was 31.2 µM.
In the case of `CN(C)CCCNc1cc(C(C)(C)C)nc2c(-c3ccccc3)cnn12`, the IC50 is 75.7 µM.
The same measure for `O=C(N/N=C/c1c[nH]c2ccccc12)c1cc2ccccc2o1`: 33.5 µM; for `CCCCOc1ccc(CSC(=N)N)cc1Cl`: 31.9 µM.
In the case of `COc1cccc(Nc2nc(NCCO)c3ccccc3n2)c1`, the IC50 is 84.5 µM.
Turning to `CCOC(=O)N/N=C(/C)c1ccc([N+](=O)[O-])o1`, the IC50 is 45.8 µM.
`O=C(O)c1ccc(N2C(=O)CSC2=S)cc1`: the IC50 is 144 µM.
In the case of `Clc1ccc(C(c2ccccc2)N2CCNCC2)cc1` (stereo unspecified), the IC50 was 144 µM.
Turning to `COc1ccc(NC2=NC3(CCCCC3)N=C(N)N2)cc1`, the IC50 is 141 µM.
For `Oc1ccc(CN2CCN(Cc3ccccc3)CC2)c2cccnc12` the value was 39.5 µM; for `O=C1Nc2ccccc2C1=Nc1ccc(S(=O)(=O)Nc2nccs2)cc1`, 90.1 µM.
With `CCN(CC)c1ccc(CNc2nc3ccccc3n2CCN2CCCCC2)cc1`, the IC50 is 145 µM.
For `O=C(c1ccccc1)c1c2c(cc3sc4ccccc4[n+]13)-c1cccc3cccc-2c13`, the IC50 is 77.3 µM.
Consider `O=C(Cn1cnc2ccccc21)Nc1ccc(SC(F)F)cc1`, for which the IC50 is 78 µM.
As for `O=C(Nc1ccccc1)c1ccc2nsnc2c1`, the IC50 was under 0.23 µM.
Regarding `CCN1/C(=C/c2cc[n+](C)cc2)C=Cc2cc(C)ccc21`, the IC50 was 78.6 µM.
As for `O=[N+]([O-])c1cc(Cl)c2cccnc2c1O`, the IC50 was 1.46 µM.
As for `O=C(N/N=C/c1cc([N+](=O)[O-])ccc1O)C(O)(c1ccccc1)c1ccccc1`, the IC50 was 60.4 µM.
As to `CC[n+]1c(/C=C/N(C)c2ccccc2)n(-c2ccccc2)c2ccc(-c3nc4ccccc4s3)cc21`, the IC50 is 8.97 µM.
On to `O=[N+]([O-])c1cccc(NNS(=O)(=O)c2ccccc2F)c1`, for which the IC50 is 8.04 µM.
For `CNC[C@H](Cc1ccccc1)NC[C@@H](Cc1cccc2ccccc12)NCCc1ccc(C)cc1`, the 50% inhibitory concentration (IC50) is 19.6 µM.
Consider `NC1=NC[C@@H](Cc2ccc(O)cc2)N1CCc1cc(C(F)(F)F)cc(C(F)(F)F)c1`, for which the IC50 was 106 µM.
In the case of `Oc1ccc(Cl)cc1Cc1cc(Cl)ccc1O`, the IC50 was 36 µM.
As to `CCOC(=O)N1CCN(C(=O)c2cn(CC)c3cc(N4CCN(C)CC4)c(F)cc3c2=O)CC1`, the IC50 was 7.67 µM.
On to `CCOc1ccc(-c2cc(C)[n+](CCN(CC)CC)c(-c3ccc(OCC)cc3)c2)cc1`, for which the IC50 is 105 µM.
The same measure for `CCOC(=O)c1c(-c2ccc(-c3ccccc3)cc2)csc1NC(=O)CNCCN(C)C`: 82.2 µM; for `CC(=O)NC(c1ccc2ccccc2c1)c1ccc2cccnc2c1O` (stereo unspecified): 68.4 µM; for `CN(C)[C@@H]1C(=O)C(C(N)=O)=C(O)[C@@]2(O)C(=O)C3=C(O)c4c(O)cccc4[C@@](C)(O)C3[C@H](O)C12` (stereo partly specified): 2.99 µM.
`CN(C)CC/C=C1\c2ccc(F)cc2Sc2cc(F)c(Cl)cc21`: the IC50 is 36.7 µM.
With `CC(C)(c1ccccc1)c1ccc(OCCCN2CCNCC2)cc1`, the IC50 was 114 µM.
Regarding `O=C(CSc1ccccn1)N/N=C/c1c[nH]c2ccccc12`, the IC50 is 133 µM.
For the compound `O=c1ccnc(Sc2ncccc2[N+](=O)[O-])[nH]1`, the IC50 is 102 µM.
For `O=C(CNCCC1=CCCCC1)Nc1ccc(N2CCCCCC2)cc1` the value was 54.2 µM; for `CC1CCc2c(N3CCC(O)CC3)c(F)cc3c(=O)c(C(=O)O)cn1c23` (stereo unspecified), 4.44 µM; for `COc1ccc(CNCCc2cccc(F)c2)c2ccccc12`, 81.7 µM.
Regarding `CCN1c2ccccc2NC2N=C(OC)C(c3ccccc3)C21` (stereo unspecified), the IC50 was 55.8 µM.
Turning to `NC1=NC[C@@H](Cc2ccc(O)cc2)N1CCCCC1CCCCC1`, the IC50 was 32.5 µM.
With `CC[C@H]1OC(=O)[C@H](C)[C@@H](O[C@H]2C[C@@](C)(OC)[C@@H](O)[C@H](C)O2)[C@H](C)[C@@H](O[C@@H]2O[C@H](C)C[C@H](N(C)C)[C@H]2O)[C@](C)(O)C[C@@H](C)CN(C)[C@H](C)[C@@H](O)[C@]1(C)O`, the IC50 is 2.33 µM.
As to `O=C(O)c1sccc1Oc1ccc(F)cc1[N+](=O)[O-]`, the 50% inhibitory concentration (IC50) was 12.6 µM.
The same measure for `CCN1CCCC1CNC(=O)c1cc2cc(F)ccc2[nH]1` (stereo unspecified): 91 µM; for `COc1cc(Br)cc(/C=N/c2ncn[nH]2)c1O`: 81.3 µM.
As to `O=[N+]([O-])c1ccc(O)c(/C=N/Nc2ccccn2)c1`, the IC50 is 15.2 µM.
As to `Cc1ccc2c(c1)sc(-c1ccc(N(C)C)cc1)[n+]2C`, the IC50 was 23.6 µM.
Regarding `Cc1cc([N+](=O)[O-])nn1CC(=O)N/N=C/c1ccccc1O`, the IC50 is 35.4 µM.
Turning to `Cc1cccc2sc(N(CCCN(C)C)C(=O)COc3ccc(Cl)cc3)nc12`, the IC50 is 79 µM.
For `O=C(Cc1cccs1)N/N=C\c1ccc([N+](=O)[O-])s1`, the IC50 was 20.1 µM.
As to `O=C(N/N=C/c1cc(Br)cc(Br)c1O)c1ccncc1`, the IC50 was 34.5 µM.
In the case of `CC(C(=O)c1ccc(-c2ccccc2)cc1)[n+]1cccc(NC(=O)c2ccccc2)c1` (stereo unspecified), the IC50 was 36.3 µM.
In the case of `CCc1ccc2c(c1)C1(NN=C(c3ccc(C)cc3)S1)C(=O)N2` (stereo unspecified), the IC50 was 24.4 µM.
The same measure for `COc1ccc2c(C(=O)CCl)c[nH]c2c1`: 36.3 µM; for `Cc1cc(C)n(-c2nc(SCCN(C)C)c3c4c(sc3n2)CCCC4)n1`: 80.1 µM.
`COc1cc(/C=N/N=C(N)N)ccc1OCc1ccc(Cl)cc1`: the IC50 is 36.7 µM.
Consider `CCCCn1c(=N)n(CC(=O)c2ccc(Br)s2)c2ccccc21`, for which the half-inhibitory concentration (IC50) is 78.7 µM.
For `COCCCNC(=S)NNC(=O)c1ccccn1` the value was 25.7 µM; for `Cc1ccc(C(=O)NNC(=S)NC(=O)COc2ccccc2)cc1`, 47.5 µM; for `CN1CCN(Cc2cc(COCc3ccccc3)c3cccnc3c2O)CC1`, 62.9 µM.
The same measure for `CSc1ccc2c(c1)C(N1CCN(C)CC1)Cc1ccc(F)cc1S2` (stereo unspecified): 51.8 µM; for `Nc1cccc2nc3ccccc3cc12`: 44.5 µM.
As to `O=C(NC(=S)NNC(=O)c1ccco1)c1ccc(Br)cc1`, the IC50 is 69 µM.
Consider `c1ccc(CN2CCN(c3ncnc4c3[nH]c3ccccc34)CC2)cc1`, for which the IC50 is 103 µM.
For `C[C@H]1COc2c(N3CCN(C)CC3)c(F)cc3c(=O)c(C(=O)O)cn1c23`, the IC50 was under 0.23 µM.
For the compound `CCCCCCCCCCOC(=O)Cn1c(COc2cccc(C)c2)[n+](C)c2ccccc21`, the IC50 is 15.9 µM.
As for `Cc1ccc(CC(=O)Nc2ncc([N+](=O)[O-])s2)cc1`, the IC50 was 94.4 µM.
With `OC(CNCc1ccco1)Cn1c2ccc(Br)cc2c2cc(Br)ccc21` (stereo unspecified), the half-inhibitory concentration (IC50) was 28 µM.
For `Fc1ccc([C@@H]2CCNC[C@H]2COc2ccc3c(c2)OCO3)cc1` the value was 77.5 µM.
As for `CC(C)N1CSC(=S)N(Cc2ccccc2)C1`, the IC50 was 59.7 µM.
For `Cc1cc(C)nc(SCC(=O)Nc2sc3c(c2C#N)CCC(C)C3)n1` (stereo unspecified), the IC50 was 41.8 µM.
The same measure for `O=C(Nc1ccc2nc(-c3ccc(Br)o3)[nH]c2c1)c1ccco1`: 130 µM; for `CCCCCCCCCCC[N+](C)(C)CC/C=C1/c2ccccc2Sc2ccc(Cl)cc21`: 31.4 µM; for `COc1ccc(C(=O)N/N=C/c2sc3ccccc3c2O)cc1`: 44.2 µM.
Take `CCC(=O)N1CCN(c2cc3c(cc2F)c(=O)c(C(=O)O)cn3CC)CC1`: the IC50 was 126 µM.
For `O=C1NCCN1c1ncc([N+](=O)[O-])s1`, the IC50 was 15.9 µM.
As for `CCCCCCCCCCCCCCCC[n+]1ccc(C(N)=O)cc1`, the IC50 is 15.4 µM.
For the compound `C[n+]1c2n(c3ccccc31)N=C(c1ccc(-c3ccccc3)cc1)CS2`, the IC50 is 38 µM.
On to `CCN(CC)c1ccc(CNc2nc3ccccc3n2C)cc1`, for which the IC50 is 97.3 µM.
Turning to `Nc1ncn(C2O[C@H](CO)[C@@H](O)[C@H]2O)c(=O)n1` (stereo partly specified), the IC50 was 10.1 µM.
For `CCn1cc(C(=O)O)c(=O)c2cc(F)c(N3CCN(C(=S)NC(=O)c4cc(OC)cc(OC)c4)CC3)cc21` the value was 3.11 µM.
As for `O=C(CNC(=O)c1cccc(F)c1)N/N=C/c1ccc([N+](=O)[O-])s1`, the IC50 was 23.8 µM.
As for `O=C(N/N=C/c1cc(Br)ccc1O)c1ccncc1`, the IC50 was 29.9 µM.
The same measure for `O=C(N/N=C/c1c[nH]c2ccccc12)c1ccc(Cl)cc1`: 123 µM; for `COc1cccc(Nc2nc(NCC3CCCO3)c3ccccc3n2)c1` (stereo unspecified): 34.2 µM.
Turning to `CCn1cc(C(=O)O)c(=O)c2cc(F)c(N3CCN(C(=S)NC(=O)c4ccccc4)CC3)cc21`, the IC50 is 24 µM.
For `Cc1c2ccncc2c(C)c2c1[nH]c1ccccc12` the value was 32.9 µM; for `C=CC1=C(C(=O)O)N2C(=O)[C@@H](NC(=O)/C(=N/OCC(=O)O)c3csc(N)n3)[C@H]2SC1`, 21 µM; for `O=C(N[C@H](CO)[C@H](O)c1ccc([N+](=O)[O-])cc1)C(Cl)Cl`, 2.71 µM.
The same measure for `CN1CCc2nc(SCC(=O)Nc3ccc(Cl)cc3)c(C#N)cc2C1`: 67.2 µM; for `COc1nccnc1NS(=O)(=O)c1ccc(N=Cc2c(C)[nH]n(-c3ccc(C)c(C)c3)c2=O)cc1`: 114 µM.
For `O=C(N/N=C/c1c(O)ccc2ccccc12)c1ccc(CO)nc1` the value was 80.1 µM.
With `O=C(/C=C/c1cccs1)NC(=S)NNC(=O)c1ccccc1O`, the IC50 was 27 µM.
For the compound `O=C(/C=C/c1ccccc1)c1ccc(NC2=NCCCS2)cc1`, the IC50 is 117 µM.
For the compound `CC(C)Oc1ccc(Cc2cnc(N)nc2N)cc1`, the IC50 was 50.3 µM.
Regarding `Cc1cccn2c(=O)c(C=O)c(Cl)nc12`, the IC50 was 140 µM.
For `CC1=NN(c2nc3ccccc3[nH]2)C(=O)C1Cc1ccccc1` (stereo unspecified) the value was 36.5 µM.
For `CCCCCC(=O)NNC(=S)NC(C)=O`, the IC50 is 22.9 µM.
Regarding `CN(C)CC/C=C1\c2ccccc2Sc2cc(F)c(Cl)cc21`, the IC50 was 65.4 µM.
`CCCCc1c(O)nc(SCC(=O)Nc2ccc3c(c2)CCC3)[nH]c1=O`: the 50% inhibitory concentration (IC50) is 30.6 µM.
For `C[C@H]1COc2c(C3(N)CC3)c(F)cc3c(=O)c(C(=O)O)cn1c23` the value was under 0.23 µM.
On to `Cc1ccc(C(C[N+](=O)[O-])Sc2ccc(N)cc2)cc1` (stereo unspecified), for which the IC50 was 29.5 µM.
As for `CCCCNC1=CC(=O)C(=O)c2ccccc21`, the IC50 is 104 µM.
Consider `Oc1cccc2ccc(Nc3ccccn3)nc12`, for which the concentration for half-maximal inhibition (IC50) is 11.6 µM.
For the compound `O=C1OCCN1/N=C/c1ccc([N+](=O)[O-])o1`, the IC50 is 13.4 µM.

Values taken from PubChem BioAssay AID1985 (Southern Research Specialized Biocontainment Screening …, 2009).
